Laboratory results taken from patent US6417202B1, “Pyridylpyrrole compounds useful as interleukin-and TNF antagonists” (Pfizer Inc., priority 1996, dated 2002).

For `CC(=O)c1c(-c2ccc([S+](C)[O-])cc2)[nH]c(-c2ccncc2)c1C` (stereo not shown) [Example 75, 3-Acetyl-4-methyl-2-(4-methylsulfinylphenyl)-5-(4-pyridyl)-1H-pyrrole], which melting point is on record?
The melting point was 249 to 250 °C.

Which melting point does the source give for `CC(=O)c1c(-c2ccncc2)[nH]c(-c2ccncc2)c1C(F)(F)F` [Example 4, 3-Acetyl-2,5-di(4-pyridyl)-4-trifluoromethyl-1H-pyrrole] here?
The melting point was 250 to 255 °C.

For `CC(=O)c1c(-c2cccnc2)[nH]c(-c2ccncc2)c1C` [Example 65, 3-Acetyl-4-methyl-2-(3-pyridyl)-5-(4-pyridyl)-1H-pyrrole], which melting point is on record?
Its melting point is 182 to 186 °C.

With `Cc1c(-c2ccncc2)[nH]c(-c2ccncc2)c1C(=O)OCc1ccccc1` [Example 13, 3-Benzyloxycarbonyl-4-methyl-2,5-di(4-pyridyl)-1H-pyrrole] as the compound, how does the melting point read?
The melting point was 204 to 205 °C.

With `COC(=O)c1c(-c2ccccc2)[nH]c(-c2ccncc2)c1C` [Example 91, Methyl 4-Methyl-2-phenyl-5-(4-pyridyl)pyrrole-3-carboxylate] as the compound, how does the melting point read?
Its melting point is 202 to 204 °C.

Which melting point does the source give for `Cc1c(-c2ccncc2)[nH]c2c1C(=O)CC(c1ccccc1)C2` (stereo not shown) [Example 56, 3-Methyl-4-oxo-6-phenyl-2-(4-pyridyl)-4,5,6,7-tetrahydro-1H-indole] here?
Its melting point is 256 to 257 °C.

Which melting point does the source give for `C=CCOC(=O)c1c(-c2ccncc2)[nH]c(-c2ccncc2)c1C` [Example 14, 3-Allyloxycarbonyl-4-methyl-2,5-di(4-pyridyl)-1H-pyrrole] here?
The melting point was 224 to 224.5 °C.

For `CC(=O)c1c(-c2ccc(F)c(Cl)c2)[nH]c(-c2ccncc2)c1C` [Example 66, 3-Acetyl-2-(3-chloro-4-fluorophenyl)-4-methyl-5-(4-pyridyl)-1H-pyrrole], which melting point is on record?
The melting point was 206 to 209 °C.

Which melting point does the source give for `CC(=O)c1c(-c2ccncc2)[nH]c(-c2ccncc2)c1CO` [Example 33, 3-Acetyl-4-hydroxymethyl-2,5-di(4-pyridyl)-1H-pyrrole] here?
Its melting point is 205 to 207 °C.

Which melting point does the source give for `O=C1CCCc2c(-c3ccncc3)[nH]c(-c3ccccc3)c21` [Example 53, 4-Oxo-3-phenyl-1-(4-pyridyl)-4,5,6,7-tetrahydroisoindole] here?
The melting point was 259 to 260 °C.

With `CCCCC(=O)c1c(-c2ccncc2)[nH]c(-c2ccncc2)c1C` [Example 6, 4-Methyl-2,5-di(4-pyridyl)-3-pentanoyl-1H-pyrrole] as the compound, how does the melting point read?
The melting point was 88 to 89 °C.

Which melting point does the source give for `Cc1c(-c2ccncc2)[nH]c2c1C(=O)CCC2(C)C` [Example 82 (3,7,7-trimethyl), 4-Oxo-2-(4-pyridyl)-3,7,7-trimethyl-4,5,6,7-tetrahydro-1H-indole] here?
Its melting point is 278 to 280 °C.

Which melting point does the source give for `CC(=O)c1c(-c2ccncc2)[nH]c(-c2ccnc3ccccc23)c1C` [Example 9, 3-Acetyl-4-methyl-2-(4-pyridyl)-5-(4-quinolyl)-1H-pyrrole] here?
Its melting point is 237 to 239 °C.

With `CC(=O)c1c(-c2ccco2)[nH]c(-c2ccncc2)c1C` [Example 69, 3-Acetyl-2-(2-furyl)-4-methyl-5-(4-pyridyl)-1H-pyrrole] as the compound, how does the melting point read?
Its melting point is 218 to 220 °C.

Which melting point does the source give for `CC(=O)c1c(N2CCN(c3ccccn3)CC2)[nH]c(-c2ccncc2)c1C` [Example 81, 3-Acetyl-4-methyl-5-(4-pyridyl)-2-{4-(2-pyridyl)piperazin-1-yl}-1H-pyrrole] here?
The melting point was 89 to 92 °C.

Which melting point does the source give for `CSc1ccc(-c2[nH]c(-c3ccncc3)c(C)c2C(C)=O)cc1` [Example 71, 3-Acetyl-4-methyl-2-(4-methylthiophenyl)-5-(4-pyridyl)-1H-pyrrole] here?
Its melting point is 169 to 172 °C.

Which melting point does the source give for `CCCOC(=O)c1c(-c2ccncc2)[nH]c(-c2ccncc2)c1C` [Example 17, 4-Methyl-3-propoxycarbonyl-2,5-di(4-pyridyl)-1H-pyrrole] here?
The melting point was 215 to 218 °C.

With `Cc1c(-c2ccncc2)[nH]c2c1C(=O)CC(C)(C)C2` [Example 55, 4-Oxo-2-(4-pyridyl)-3,6,6-trimethyl-4,5,6,7-tetrahydro-1H-indole] as the compound, how does the melting point read?
The melting point was 241 to 241.5 °C.

For `Cc1c(-c2ccncc2)[nH]c(-c2ccncc2)c1S(C)(=O)=O` [Example 27, 3-Metha nesulfonyl-4-methyl-2,5-di(4-pyridyl)-1H-pyrrole], which melting point is on record?
Its melting point is 232 to 234 °C.

Which melting point does the source give for `Cc1c(-c2ccncc2)[nH]c2c1C(=O)CCC2` [Example 49, 3-Methyl-4-oxo-2-(4-pyridyl)-4,5,6,7-tetrahydro-1H-indole] here?
Its melting point is 248 to 249 °C.

For `O=C1CCCc2c(-c3ccccc3)[nH]c(-c3ccncc3)c21` [Example 54, 7-Oxo-3-phenyl-1-(4-pyridyl)-4,5,6,7-tetrahydroisoindole], which melting point is on record?
The melting point was 254 to 255 °C.

Which melting point does the source give for `CC(=O)c1c(CO)[nH]c(-c2ccncc2)c1C` [Example 89, 3-Acetyl-2-hydroxymethyl-4-methyl-5-(4-pyridyl)-1H-pyrrole] here?
The melting point was 163 to 165 °C.

With `Cc1c(-c2ccncc2)[nH]c(-c2ccncc2)c1C=O` [Example 26, 3-Formyl-4-methyl-2,5-di(4-pyridyl)-1H-pyrrole] as the compound, how does the melting point read?
Its melting point is 278 to 280 °C.

For `C=Cc1[nH]c(-c2ccncc2)c(C)c1C(C)=O` [Example 67, 3-Acetyl-4-methyl-5-(4-pyridyl)-2-vinyl-1H-pyrrole], which melting point is on record?
Its melting point is 150 to 155 °C.

For `CCOC(=O)c1c(-c2ccncc2)[nH]c(-c2ccncc2)c1-c1ccc([N+](=O)[O-])cc1` [Example 25, 3-Ethoxycarbonyl-4-(4-nitrophenyl)-2,5-di(4-pyridyl)-1H-pyrrole], which melting point is on record?
The melting point was 274 to 276 °C.

With `CC(=O)c1c(-c2ccc(C(F)(F)F)cc2)[nH]c(-c2ccncc2)c1C` [Example 73, 3-Acetyl-4-methyl-5-(4-pyridyl)-2-(4-trifluoromethylphenyl)-1H-pyrrole] as the compound, how does the melting point read?
The melting point was 178.5 to 179.5 °C.

For `CCC(=O)c1c(-c2ccncc2)[nH]c(-c2ccncc2)c1C` [Example 5, 4-Methyl-3-propanoyl-2,5-di(4-pyridyl)-1H-pyrrole], which melting point is on record?
The melting point was 237 to 238 °C.

For `CCCc1c(-c2ccncc2)[nH]c(-c2ccncc2)c1C(C)=O` [Example 29, 3-Acetyl-4-propyl-2,5-di(4-pyridyl)-1H-pyrrole], which melting point is on record?
The melting point was 111 to 113 °C.

For `CC(=O)c1c(N2CCN(c3ccccc3)CC2)[nH]c(-c2ccncc2)c1C` [Example 78, 3-Acetyl-4-methyl-2-(4-phenylpiperazin-1-yl)-5-(4-pyridyl)-1H-pyrrole], which melting point is on record?
The melting point was 218 to 220 °C.

Which melting point does the source give for `CC(=O)c1c(-c2ccccc2)[nH]c(-c2ccncc2)c1C` [Example 46, 3-Acetyl-4-methyl-2-phenyl-5-(4-pyridyl)-1H-pyrrole] here?
Its melting point is 202 to 203 °C.

With `CCC(=O)c1c(-c2ccncc2)[nH]c(-c2ccncc2)c1CC` [Example 3, 4-Ethyl-3-propanoyl-2,5-di(4-pyridyl)-1H-pyrrole] as the compound, how does the melting point read?
The melting point was 209 to 211 °C.
